# Assays:
# Type in all cases: binding
# [1] = tested on: rabbit anti-SDMA antibody in serum, Rabbit # 154 (SDMA conjugated with KLH immunogen); assay: Competitive ELISA, specificity of anti-SDMA antibody, Rabbit # 154; conditions: Rabbit # 154 (1.25K); for IC 50: competition with SDMA-HRP conjugate
# Method: (§1) In order to assess the specificity of the antibodies obtained by the procedures described in Example 3 above, their reactivity to SDMA, ADMA, L-arginine, and/or N-methylarginine was measured in a competitive ELISA assay (Table 1).
# (§2) ADMA-2HCl, SDMA-2HCl, N-methylarginine acetate (Sigma, Cat. No. M7033) or L-arginine (Sigma, Cat. No. A5006) were each dissolved in PBS to make stock solutions at 1 mg/ml. From these stock solutions, working solutions at 100 μg/ml, 10 μg/m and 1 μg/m were prepared in PBS.
# (§3) […] After a 30 minutes incubation period at room temperature, the wells were washed 4 times with PBST (Phosphate Buffered Saline, 0.05% Tween).
# (§4) 100 μl of 3,3′,5,5′-Tetramethylbenzidine (commercially available from Promega Corporation of Madison, Wis.) was subsequently added. Following a 30 minutes incubation period at room temperature, 100 μl of stop solution (1 N HCl) was added and the absorbance was measured at […] using a BioTek ELX 808 (Winooski, Vt.) plate reader. The data was subjected to quantification using Softmax software (Molecular Devices, Sunnyvale, Calif.).
# (§5) The absorbance values obtained with 0 μg/mL, 1 μg/mL, 10 μg/mL, and 100 μg/mL of ADMA, SDMA, N-methylarginine or L-arginine, respectively, were determined and plotted. The concentration of SDMA at which the absorbance value was reduced by 50% (relative to the maximum absorbance obtained at 0 μg/mL SDMA; i.e. IC50) was divided by each of the concentrations of ADMA, N-methylarginine or L-arginine, respectively, at which the absorbance value was reduced by 50% (IC50). The resulting value was multiplied by 100 to obtain the value “% cross-reactivity”.
# [2] = tested on: rabbit anti-SDMA antibody in serum, Rabbit # 152 (SDMA conjugated with KLH immunogen); assay: Competitive ELISA, specificity of anti-SDMA antibody, Rabbit # 152; conditions: Rabbit # 152 (1:5K); for % Cross Reactivity: IC50 of SDMA divided by IC50 of competitor x 100; for IC 50: competition with SDMA-HRP conjugate, absorbance reduced by 50%
# Method: as §1, §2, §3, §4, §5
# [3] = tested on: rabbit anti-SDMA antibody in serum, Rabbit # 153 (SDMA conjugated with KLH immunogen); assay: Competitive ELISA, specificity of anti-SDMA antibody, Rabbit # 153; conditions: Rabbit # 153 (1:2.5K); for IC 50: competition with SDMA-HRP conjugate
# Method: as §1, §2, §3, §4, §5
# [4] = tested on: rabbit anti-SDMA antibody in serum, Rabbit # 157 (SDMA conjugated with BSA immunogen); assay: Competitive ELISA, specificity of anti-SDMA antibody, Rabbit # 157; conditions: Rabbit # 157 (1:15K); for IC 50: competition with SDMA-HRP conjugate
# Method: as §1, §2, §3, §4, §5
# [5] = tested on: rabbit anti-SDMA antibody in serum, Rabbit # 155 (SDMA conjugated with BSA immunogen); assay: Competitive ELISA, specificity of anti-SDMA antibody, Rabbit # 155; conditions: Rabbit # 155 (1:3K); for IC 50: competition with SDMA-HRP conjugate
# Method: as §1, §2
# (§6) 50 μl of the SDMA-HRP conjugate (as described in Example 5 below), 50 μl of ADMA, SDMA, N-methylarginine or L-arginine (at concentrations from 1-100 μg/ml as described above), and 50 μl of rabbit anti-SDMA antibody in serum (1:3000 titer) were sequentially added to an individual well in a 96-well polystyrene microwell plate, precoated with sheep anti-rabbit IgG (commercially available from Beacon Analytical Systems Inc. of Portland, Me.). After a 30 minutes incubation period at room temperature, the wells were washed 4 times with PBST (Phosphate Buffered Saline, 0.05% Tween).
# as §4, §5
# [6] = tested on: rabbit anti-SDMA antibody in serum, Rabbit # 156 (SDMA conjugated with BSA immunogen); assay: Competitive ELISA, specificity of anti-SDMA antibody, Rabbit # 156; conditions: Rabbit # 156 (1:20K); for IC 50: competition with SDMA-HRP conjugate
# Method: as §1, §2, §3, §4, §5
# [7] = tested on: polyclonal antibody from Rabbit No. 154; assay: Specificity determined with greater stringency, polyclonal antibody from Rabbit No. 154; conditions: Rabbit No. 154, greater stringency
# Method: as §1, §2, §6, §4
# The absorbance values obtained with 0 μg/mL, 1 μg/mL, 10 μg/mL, and 100 μg/mL of ADMA, SDMA, N-methylarginine or L-arginine, respectively, were determined and plotted. […]
# In another experiment, using only polyclonal antibody from Rabbit No. 154, the specificity of the antibody was determined with greater stringency by the method described above.
IC 50 [1],IC 50 [2],IC 50 [3],IC 50 [4],IC 50 [5],IC 50 [6],Compound,% Cross Reactivity [1],% Cross Reactivity [2],% Cross Reactivity [3],% Cross Reactivity [4],% Cross Reactivity [5],% Cross Reactivity [6],Specificity (Cross-Reactivity) [7]
>100 µg/mL,>100 µg/mL,>100 µg/mL,>100 µg/mL,>100 µg/mL,>100 µg/mL,"CN(C)C(=N)NCCCC(N)C(=O)O (stereo not drawn) [ADMA, asymmetrical dimethylarginine]",<1%,<1%,<1%,<1%,<1%,<1%,<0.2%
>100 µg/mL,>100 µg/mL,>100 µg/mL,>100 µg/mL,79 µg/mL,>100 µg/mL,"CNC(=N)NCCCC(N)C(=O)O (stereo not drawn) [N-MMA, N-monomethylarginine]",<1%,<1%,<1%,<1%,<1%,<1%,
0.49 µg/mL,1.10 µg/mL,0.65 µg/mL,1.6 µg/mL,0.73 µg/mL,1.3 µg/mL,"C/N=C(\NC)NCCCC(N)C(=O)O (stereo not drawn) [SDMA, symmetrical dimethylarginine]",100%,100%,100%,100%,100%,100%,100%

Compound,IC 50 [1],IC 50 [2],IC 50 [3],IC 50 [4],IC 50 [5],IC 50 [6],% Cross Reactivity [1],% Cross Reactivity [2],% Cross Reactivity [3],% Cross Reactivity [4],% Cross Reactivity [5],% Cross Reactivity [6],Specificity (Cross-Reactivity) [7]
"N=C(N)NCCC[C@H](N)C(=O)O [L-Arginine, arginine]",>100 µg/mL,>100 µg/mL,>100 µg/mL,>100 µg/mL,>100 µg/mL,>100 µg/mL,<1%,<1%,<1%,<1%,<1%,<1%,<0.01%

# Reference: patent publication US8481690B2, “Methods for detecting symmetrical dimethylarginine” (IDEXX Laboratories, Inc., priority 2008, dated 2013)
